Laboratory results from US10351548B2, “2-oxo-1,2-dihydropyridine-3-carboxamide compounds and their use as inhibitors of PDK1” (INTERNATIONAL SOCIETY FOR DRUG DEVELOPMENT S.R.L., priority 2015, dated 2019).

How the values were obtained:
PDK1 Direct kinase = PDK1 Direct kinase (Homo sapiens (Human), UniProt O15530); assay: Kinase-specific FRET-based Z'-LYTE assay against PDK1 Direct kinase; type: biochemical; conditions: for IC50: read-out: PDK1 IC50
Description: The compounds of Formula (I) and (II) were tested in the biological test named Kinase-specific Z′-LYTE® assay (Invitrogen Corporation, Life Technologies).

U87MG cells = assay: U87MG cell proliferation, MTS assay; type: cell-based, human; conditions: Homo sapiens, U-87 MG; 72 h, MTS assay; read-out: IC50 U87MG
Description: (§1) The U87MG cell line was obtained from the National Institute for Cancer Research of Genoa (Italy) and cultured in DMEM 10% FBS and 2 mM glutamine. To isolate GSCs, approximately 2.0×10^6 cells were suspended in 1 mL of a defined serum-free Neural Stem Cell (NSC) medium (Daniele, S., et al., Modulation of A1 and A2B adenosine receptor activity: a new strategy to sensitise glioblastoma stem cells to chemotherapy. Cell death & disease, 2014. 5(11): p. e1539). After 3-4 days of culture, the neurospheres were collected, suspended in NSC medium, dissociated into single cells, and plated for the assays. For the long-term treatment of cells, NSC or complete medium containing drugs was replaced every two to three days.
(§2) The human U87MG cells or GSCs were seeded at a density of 3×10^3 cells/well. After 24 h, the cells were treated from one to seven days with fresh growth medium containing different concentrations of SA16, SA23 or IB35. Following the treatment period, cell proliferation was determined using the MTS assay according to manufacturer's instruction. The absorbance of formazan at […] was measured in a colorimetric assay with an automated plate reader (Victor Wallac 2, Perkin Elmer). The results were calculated by subtracting the mean background from the values obtained from each evaluation and were expressed as the percentage of the control (untreated cells). Sigmoid dose-response curve was generated, from which the IC50 values were derived.
As representative GBM cell line, the above U87MG cells were used; this human cell line resulted an appropriate model to study the effects of PDK1 inhibition, because it is deficient for the tumour suppressor phosphatase and tensin homologue (PTEN), a negative regulator of the PI3K/AKT pathway (Wang, S. I., et al., Somatic mutations of PTEN in glioblastoma multiforme. Cancer research, 1997. 57(19): p. 4183-4186). To examine the effects of SA16, SA23 and IB35 on GBM cell growth/survival, U87MG cells were incubated with different concentrations of the new compounds (1 nM-10 μM) for 24 and 72 h. Specifically, U87MG cells were treated in complete medium with different concentrations of SA16, SA23 or IB35 (1 nM-10 μM) for 24 h (A) or 72 h (B). At the end of treatment, cell proliferation was measured using the MTS assay. The data are expressed as a percentage with respect to that of untreated cells (control), which was set to 100%, and are the mean values±SEM of three independent experiments, each performed in duplicate. The significance of the differences reported in FIGS. 1 and 2 was determined with a one-way ANOVA with Bonferroni post-test (* p<0.05, **p<0.01, *** p<0.001 vs. control cells).

[1] = system: GSCs isolated from U87MG cells; assay: GSC proliferation, MTS assay; type: cell-based, human; conditions: Homo sapiens, U-87 MG, 168 h; seven days of treatment, MTS assay
Description: as §1, §2
The inhibition of PDK1 has been reported as potentially effective therapeutic approach to reduce self-renewal and propagation of GSCs (Signore, M., et al., Combined PDK1 and CHK1 inhibition is required to kill glioblastoma stem-like cells in vitro and in vivo. Cell death & disease, 2014. 5(5): p. e1223). On this basis, the effects of SA16, SA23 and IB35 on GSCs, isolated from U87MG cells as previously reported, were evaluated (Daniele, S., et al., Modulation of A1 and A28 adenosine receptor activity: a new strategy to sensitise glioblastoma stem cells to chemotherapy. Cell death & disease, 2014. 5(11): p. e1539). U87MG-derived GSCs were incubated with the indicated concentrations of IB35, SA23 or SA16 for four days (FIG. 8) or seven days (FIG. 9). At the end of the treatment periods, cell proliferation was measured using the MTS assay. The data were expressed as a percentage with respect to that of untreated cells (control), which was set to 100%, and are the mean values±SEM of three independent experiments, each performed in duplicate. IC50 values after seven days of treatment were calculated from sigmoid dose-response curve (FIG. 9). The significance of the differences was determined with a one-way ANOVA with Bonferroni post-test (** p<0.01, *** p<0.001 vs. control).

Sequence of PDK1 Direct kinase (O15530 whole entry): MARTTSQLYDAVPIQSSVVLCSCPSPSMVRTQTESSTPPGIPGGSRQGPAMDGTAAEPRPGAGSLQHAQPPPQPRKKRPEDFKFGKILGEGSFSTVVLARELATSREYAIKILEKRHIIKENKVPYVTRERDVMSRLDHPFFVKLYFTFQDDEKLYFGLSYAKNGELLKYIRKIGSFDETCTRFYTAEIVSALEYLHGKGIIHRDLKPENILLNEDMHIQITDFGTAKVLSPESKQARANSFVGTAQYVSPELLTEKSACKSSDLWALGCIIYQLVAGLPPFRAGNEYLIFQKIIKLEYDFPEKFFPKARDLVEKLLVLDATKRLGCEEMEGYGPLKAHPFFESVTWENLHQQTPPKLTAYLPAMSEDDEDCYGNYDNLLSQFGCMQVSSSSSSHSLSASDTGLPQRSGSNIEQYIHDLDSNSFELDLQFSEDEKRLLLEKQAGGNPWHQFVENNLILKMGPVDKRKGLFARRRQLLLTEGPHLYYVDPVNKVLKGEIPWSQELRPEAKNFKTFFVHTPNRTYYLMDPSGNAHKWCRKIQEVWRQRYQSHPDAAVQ

SMILES: O=C1Nc2ccc(NC(=O)c3cccc(NC(=O)c4cccn(Cc5ccc(F)c(F)c5)c4=O)c3)cc2C1=Cc1cccs1 (mixture of isomers) [DD41, (E/Z)-1-(3,4-difluorobenzyl)-2-oxo-N-(3-((2-oxo-3-(thiophen-2-ylmethylene)indolin-5-yl)carbamoyl)phenyl)-1,2-dihydropyridine-3-carboxamide]
- inhibition at 10 µM (PDK1 Direct kinase): 26%

SMILES: O=C(CCCNC(=O)c1cccn(Cc2ccc(F)c(F)c2)c1=O)Nc1ccc2c(c1)C(=Cc1cccs1)C(=O)N2 (mixture of isomers) [DF9, (E/Z)-1-(3,4-difluorobenzyl)-2-oxo-N-(4-oxo-4-((2-oxo-3-(thiophen-2-ylmethylene)indolin-5-yl)amino)butyl)-1,2-dihydropyridine-3-carboxamide]
- inhibition at 10 µM (PDK1 Direct kinase): > 50%
- IC50 (PDK1 Direct kinase): 5880 nM

SMILES: O=C(CNC(=O)c1cccn(Cc2ccc(F)c(F)c2)c1=O)Nc1ccc2c(c1)C(=Cc1cccs1)C(=O)N2 (mixture of isomers) [IB36, (E/Z)-1-(3,4-difluorobenzyl)-2-oxo-N-(2-oxo-2-((2-oxo-3-(thiophe-2-ylmethylene)indolin-5-yl)amino)ethyl)-1,2-dihydropyridine-3-carboxamide]
- inhibition at 10 µM (PDK1 Direct kinase): 19%

SMILES: O=C(CCNC(=O)c1cccn(Cc2ccc(F)c(F)c2)c1=O)Nc1ccc2c(c1)/C(=C/c1cnc[nH]1)C(=O)N2 [DD21, (Z)—N-(3-((3-((1H-imidazol-5-yl)methylene)-2-oxoindolin-5-yl)amino)-3-oxopropyl)-1-(3,4-difluorobenzyl)-2-oxo-1,2-dihydropyridine-3-carboxamide]
- inhibition at 10 µM (PDK1 Direct kinase): > 50%

SMILES: O=C(CCNC(=O)c1cccn(Cc2ccc(F)c(F)c2)c1=O)Nc1ccc2c(c1)/C(=C/c1cccs1)C(=O)N2 [DD22, (E/Z)-1-(3,4-difluorobenzyl)-2-oxo-N-(3-oxo-3-((2-oxo-3-(thiophen-2-ylmethylene)indolin-5-yl)amino)propyl)-1,2-dihydropyridine-3-carboxamide]
- inhibition at 10 µM (PDK1 Direct kinase): > 50%
- IC50 (PDK1 Direct kinase): 1340 nM

SMILES: O=C(CCNC(=O)c1cccn(Cc2ccc(F)c(F)c2)c1=O)Nc1ccc2c(c1)/C(=C/c1ccc(F)cc1)C(=O)N2 [DD23, (Z)-1-(3,4-difluorobenzyl)-N-(3-((3-(4-fluorobenzylidene)-2-oxoindolin-5-yl)amino)-3-oxopropyl)-2-oxo-1,2-dihydropyridine-3-carboxamide]
- inhibition at 10 µM (PDK1 Direct kinase): 15%

SMILES: O=C(CCNC(=O)c1cccn(Cc2ccc(F)c(F)c2)c1=O)Nc1ccc2c(c1)/C(=C/c1ncc[nH]1)C(=O)N2 [DD25, (Z/E)-N-(3-((3-((1H-imidazol-2-yl)methylene)-2-oxoindolin-5-yl)amino)-3-oxopropyl)-1-(3,4-difluorobenzyl)-2-oxo-1,2-dihydropyridine-3-carboxamide]
- inhibition at 10 µM (PDK1 Direct kinase): 47%

SMILES: O=C(CCCNC(=O)c1cccn(Cc2ccc(F)c(F)c2)c1=O)Nc1ccc2c(c1)/C(=C/c1cnc[nH]1)C(=O)N2 [DF8, (Z)-N-(4-((3-((1H-imidazol-5-yl)methylene)-2-oxoindolin-5-yl)amino)-4-oxobutyl)-1-(3,4-difluorobenzyl)-2-oxo-1,2-dihydropyridine-3-carboxamide]
- inhibition at 10 µM (PDK1 Direct kinase): > 50%

SMILES: CO[C@H]1C[C@@H]2CC[C@@H](C)[C@@](O)(O2)C(=O)C(=O)N2CCCC[C@H]2C(=O)O[C@H]([C@H](C)C[C@@H]2CC[C@@H](OCCO)[C@H](OC)C2)CC(=O)[C@H](C)/C=C(\C)[C@@H](O)[C@@H](OC)C(=O)[C@H](C)C[C@H](C)/C=C/C=C/C=C/1C [Everolimus, reference compound]
- IC50 (U87MG cells): 50 ± 2.8 nM
- IC50 [1]: 15 ± 1.2 nM

SMILES: O=C(CNC(=O)c1cccn(Cc2ccc(F)c(F)c2)c1=O)Nc1ccc2c(c1)CC(=O)N2 [IB32, 1-(3,4-difluorobenzyl)-2-oxo-N-(2-oxo-2-((2-oxoindolin-5-yl)amino)ethyl)-1,2-dihydropyridine-3-carboxamide]
- inhibition at 10 µM (PDK1 Direct kinase): > 50%
- IC50 (PDK1 Direct kinase): 6680 nM

SMILES: O=C1Nc2ccc(NC(=O)c3cccn(Cc4ccc(F)c(F)c4)c3=O)cc2/C1=C/c1cnc[nH]1 [JJ31, (Z)—N-(3-((1H-imidazol-5-yl)methylene)-2-oxoindolin-5-yl)-1-(3,4-difluorobenzyl)-2-oxo-1,2-dihydropyridine-3-carboxamide]
- inhibition at 10 µM (PDK1 Direct kinase): > 50%
- IC50 (PDK1 Direct kinase): 512 nM
